What was measured:
integrin β6 = test system: T1, integrin β6; assay: Integrin internalization assay, surface integrin β6 by flow cytometry; format: cell-based, human; settings: J cells with nectin1, αvβ6 and αvβ8, 700 μM, 1 h at 37 °C
T1 construct: expressed in transfected cells; host or cells: J cells (derivatives of BHK-TK2 hamster cells)
Text: Therefore, another mechanism might be responsible for the activity of 6 on J cells expressing αvβ8 integrin alone as well as the higher activity of 6 than that of 1 in cells that express both αvβ6 and αvβ8.[38] Thus, we hypothesized that 6 can prevent HSV-1 entry into J cells expressing nectin1 and the αvβ8 integrin alone by inducing internalization of the integrin itself. To validate our hypothesis, J cells were transfected with nectin1 and the two integrins αvβ6 and αvβ8 in the above-described manner. Then, 48 h after transfection, the cells were incubated for 60 min at 37 °C with 1 or 6. The surface expression of integrin β6 and β8, in the presence or the absence of peptides, was then evaluated by flow cytometry using FAB4155A (mAbβ6) and FAB4775A (mAbβ8) monoclonal antibodies that recognize other integrin regions than the RGD-binding domain.
Figure 5 Integrin internalization assay. J cells were transfected with a low amount (75 ng of DNA/24 well) of nectin1 plus αvβ6 integrin (300 ng of DNA/24 well) and αvβ8 integrin (300 ng of DNA/24 well). Then, 48 h after transfection, the cells were exposed to 700 μM peptides for 1 h at 37 °C. […] Integrin and nectin1 surface expression levels were quantified as flow cytometry expression of the APC mean fluorescence intensity (MFI) of gated cells. […]

gHsolST = assay: gH binding assay, gHsolST binding to transfected J cells; format: cell-based, HSV-1; settings: J cells with nectin1, αvβ6 and αvβ8, 700 μM peptide, 2 μM gHsolST
Experimental: To further verify this hypothesis, the soluble form of gH (gHsolST) was used in a soluble protein in the cell-binding assay on J cells transfected with nectin1 and the αvβ6 and αvβ8 integrins, treated or untreated with each peptide.
Figure 6 gH binding assay. J cells were transfected with a low amount (75 ng of DNA/24 well) of nectin1 plus αvβ6 integrin (300 ng of DNA/24 well) and αvβ8 integrin (300 ng of DNA/24 well). Then, 48 h after transfection, the cells were exposed to 700 μM peptides for 1 h at 37 °C. Cells derived from samples treated or not treated with peptides were incubated for 1 h at 4 °C with gHsolST or gBsolST. Samples were washed and subsequently incubated for 1 h at 4 °C with phycoerythrin (PE)-conjugated mAb to the One-STrEP tag (Strep-Tactin). gHsolST and gBsolST binding to the cell surface were quantified as the flow cytometry expression of the PE mean fluorescence intensity (MFI) of gated cells. Histograms represent the average of triplicates ± SD.
The remaining half of the samples were used for the gH binding assay. […] Control cells were incubated with 2 μM gBsolST in 100 μL of the same buffer used for gHsolST and the binding of soluble protein was detected as described for the gH binding assay. Cells were analyzed by cytofluorimetric analyses using an AccuriC6 flow cytometer (Becton Dickinson). […]

[1] = test system: recombinant R8102 HSV-1 strain; assay: Infection neutralization assay, 293T cells, R8102 HSV-1, β-galactosidase readout; format: cell-based; settings: for effect on HSV-1 infection (in words): increasing concentrations, 1 h prior to infection and 90 min during attachment
Text: The binding of HSV-1 gH/gL to either αvβ6 or αvβ8 results in the dissociation of gL from the heterodimer, which, in turn, can favor HSV entry into cells.[27] […] R1.302, a nectin1-neutralizing mAb, was used as a positive control. In the first set of experiments, 293T cells, expressing both the αvβ6 and αvβ8 integrins, were alternatively exposed to increasing concentrations of the integrin-binding peptides and R1.302 before and during the infection by the recombinant R8102 HSV-1 strain. This virion carries, indeed, a lacZ reporter gene under the control of the α27 promoter, whose expression analysis allows for readily quantifying the infectivity.[59] […] Remarkably, these preliminary results were in agreement with the known interchangeable and additive roles played by αvβ6 and αvβ8 integrins upon HSV-1 infection.[26]
Figure 3 Inhibition of HSV-1 infection. 293T cells were exposed to increasing concentrations of the indicated peptides for 1 h prior to infection and during virus attachment for another 90 min. Infection was induced using the recombinant R8102 HSV-1 strain and measured after 8 h as β-galactosidase activity, using o-nitrophenyl-D-galactopyranoside (ONPG) as a substrate. The assays were run in triplicate. Bars show standard deviation (SD).
The experiments were performed using 293T cells in 96-well plates with extracellular virions of R8102 at an input multiplicity of infection of 5 PFU/cell. Cells were exposed to increasing concentrations of the peptides for 1 h at 37 °C, and the viral inoculum was added in the presence of peptides for 90 min at 37 °C. After the removal of the inoculum and rinsing with DMEM containing 1% FBS, the cells were incubated without peptides for 8 h. The same protocol was followed for R1.302 mAb that was used as a positive control. The infection was quantified as β-Gal activity using o-nitrophenyl-D-galactopyranoside (ONPG) as a substrate.[86]

Row | Compound | membrane expression of integrin β6 (in words) (integrin β6) | binding of gHsolST to cells (in words) (gHsolST) | effect on HSV-1 infection (in words) [1] | inhibition of HSV infection ([1]; 700 μM) | maximum inhibition of HSV-1 infection ([1]; at 1000 μM)
1 | CN1C(=O)[C@H](C2CCCCC2)NC(=O)[C@H](CC(=O)O)NC(=O)CNC(=O)[C@H](CCCNC(=N)N)NC(=O)CC[C@H]1C(N)=O [compound 6, [Arg-Gly-Asp-Chg-(NMe)Glu]-CONH2] | reduced | strongly reduced | able to inhibit HSV-1 infection in a dose-dependent manner | – | –
2 | N=C(N)NCCC[C@@H]1NC(=O)CC[C@@H](C(N)=O)NC(=O)[C@H](C2CCCCC2)NC(=O)[C@H](CC(=O)O)NC(=O)CNC1=O [compound 1, [Arg-Gly-Asp-Chg-Glu]-CONH2] | reduced | only partially reduced | able to inhibit HSV-1 infection in a dose-dependent manner | 40% | 50%

— publication PMC8279406 (Journal of Medicinal Chemistry, 2021)
